Results on two compounds are retold here after patent US20160303081A1, “INHIBITORS OF BETA1-INTEGRIN AND METHODS OF USE” (The Texas A&M University System, priority 2015, published 2016).

The target in one assay is T1, NR4A1 (Homo sapiens, UniProt P22736).
T1 construct: Panc1 cells were transfected with a GAL4-NR4A1 (full length) construct; expressed in transfected cells; host or cells: Panc1
Nature of the assay: GAL4-NR4A1 / UAS5-luc transactivation reporter assay in Panc1 cells. It counts as cell-based. Particulars: Panc1 cells transfected with GAL4-NR4A1 (full length) and UAS5-luc reporter; FIG. 2A/2B. The text has this: (§1) These compounds bind the receptor and are receptor antagonists. Thus, C-DIMs are the first NR4A1 antagonists that inhibit NR4A1-mediated pro-oncogenic genes/pathways. The transactivation and NR4A1 binding of the p-hydroxyphenyl (DIM-C-pPhOH) analog was initially investigated.

The target of assay [1] is ligand binding domain (LBD) of NR4A1 (Homo sapiens, UniProt P22736). Nature of the assay: Fluorescence quenching binding assay with His-NR4A1 (LBD). Particulars: His-tagged ligand binding domain of NR4A1.
ligand binding domain (LBD) of NR4A1, sequence (P22736 360-595 limits assumed): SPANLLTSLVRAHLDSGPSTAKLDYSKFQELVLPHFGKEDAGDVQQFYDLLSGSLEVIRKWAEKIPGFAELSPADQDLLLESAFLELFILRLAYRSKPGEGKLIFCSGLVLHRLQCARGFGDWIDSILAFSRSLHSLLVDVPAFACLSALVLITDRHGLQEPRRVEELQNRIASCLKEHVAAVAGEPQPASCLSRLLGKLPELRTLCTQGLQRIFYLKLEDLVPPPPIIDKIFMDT
Excerpt: as §1
Using a fluorescent binding assay, a library of C-DIM compounds were screened. Specifically, 14 different C-DIM analogs with pPhX on the bridging carbon (i.e., as R8) were screened, where X was CF3, Br, F, t-Butyl, OCH3, N-dimethylamino, H, OH, C6H5, CN, CH3, Cl, I and CO2Me. Each analog bound the ligand binding domain of NR4A1 and KD values for binding varied from 0.1-0.71 μM.

A further assay relates to MDA-MB-231 cells. Nature of the assay: Migration/invasion of MDA-MB-231 cells. The class given is cell-based, human. Conditions: MDA-MB-231 cells (FIG. 15). The text has this: FIG. 15 illustrates that the NR4A1 antagonist DIM-C-pPhCO2ME inhibits migration/invasion of MDA-MB-231 cells.
(§2) Assessing downstream effects of the above β1-integrin inhibition, knockdown of NR4A1 (TR3) by RNA interference decrease migration and invasion performance of SKBr3 and MDA-MB-231 cells (FIG. 14). […] Moreover, the effects of other NR4A1 antagonists on migration and invasion of the breast cancer cells were investigated.

In the next assay the test system is SKBR3 cells. Nature of the assay: Migration/invasion of SKBR3 cells. It counts as cell-based, human. Particulars: SKBR3 cells (FIGS. 16, 17).
Excerpt: FIG. 16 illustrates that the NR4A1 antagonist DIM-C-pPhCO2ME inhibits migration/invasion of SKBR3 cells.
as §2

Assay [2] relates to pancreatic cancer cells. Put plainly: Boyden Chamber invasion assay, pancreatic cancer cells. Particulars: 20 μM, p<0.001 (FIGS. 4A, 4B). The class given is cell-based. An excerpt:
FIGS. 4A and 4B illustrate that DIM-C-pPhOH decreases pancreatic cancer cell invasion in a Boyden Chamber assay. Significant inhibition with p<0.001 indicated with “#”.
Previous studies indicate that in pancreatic cancers, NR4A1 regulates pro-survival genes (e.g. survivin) through an Sp1/p300/NR4A1 complex in which Sp1 binds promoter DNA. […] A third pathway involves activation of mTOR which is due to inactivation of p53 by binding NR4A1 and this pathway is only observed in cancer cell lines and tumors expressing wild-type p53.

For assay [3], the system named is β1-integrin. Nature of the assay: Expression of β1-integrin and related gene products, pancreatic cancer cells. It counts as cell-based. Particulars: 20 μM (FIG. 7). As for the experimental part:
(§3) Discovery of NR4A1-regulated pro-invasion/migration genes was determined using Illumina Human HT-12V4 Beadchip arrays (FIGS. 5A and 5B). Knockdown of NR4A1 in Panc1 cells decreased expression of β1-integrin which is known to play an important role in cell migration and invasion. […] The loss of α5-integrin may be indirect since it was previously reported that β1-integrin silencing by RNAi decreased α5-integrin. […] Decreased adhesion to fibronectin-coated plates was also observed in pancreatic cancer cells treated with DIM-C-pPhOH (FIG. 9), confirming that siNR4A1 and NR4A1 antagonists decrease expression of β1-integrin. This represents a novel approach for targeting this pro-oncogenic factor in pancreatic cancer.

In assay [4] the test system is pancreatic cancer cells. Nature of the assay: Adhesion to human fibronectin-coated plates, pancreatic cancer cells. The class given is cell-based. Conditions: 20 μM, p<0.001 / p<0.005 (FIG. 9). As for the experimental part:
Significant inhibition with p<0.001 indicated with “#” and significant inhibition with p<0.005 indicated with “***”.
as §3

Assay [5] concerns L3.6pL orthotopic xenograft. Put plainly: L3.6pL orthotopic xenograft in athymic nude mice, tumor lysates by Western blot. The class given is in vivo. Particulars: 30 mg/kg/d, compared to corn oil control; lysate from two animals (FIG. 10). The text has this:
The tumor lysate from two animals is shown.

Assay [6] concerns β1-integrin. Nature of the assay: β1-integrin expression, MDA-MB-231 breast cancer cells. It counts as cell-based, human. Particulars: MDA-MB-231 cells (FIGS. 11, 12).
For assay [7], the system named is β1-integrin. Nature of the assay: β1-integrin expression, SKBR3 breast cancer cells. Particulars: SKBR3 cells (FIGS. 11, 12). It counts as cell-based, human.
The subject of assay [8] is β1-integrin. Put plainly: β1-integrin expression, MCF-7 breast cancer cells. It counts as cell-based. Particulars: MCF-7 cells.
Assay [9] deals with β1-integrin. Put plainly: β1-integrin expression, RKO colon cancer cells. It counts as cell-based. Particulars: RKO colon cancer cells (FIG. 13).
The test system of assay [10] is β1-integrin. Nature of the assay: β1-integrin expression, SW480 colon cancer cells. It counts as cell-based. Conditions: SW480 colon cancer cells (FIG. 13).
Assay [11] concerns pancreatic cancer cells. Particulars: stated with previous studies; cited from earlier work.
Assay [12] concerns L3.6pL orthotopic xenograft. Conditions: athymic nude mice, orthotopic model; previous studies; cited from earlier work.

T1 sequence (P22736 whole entry, the tested form may be a part): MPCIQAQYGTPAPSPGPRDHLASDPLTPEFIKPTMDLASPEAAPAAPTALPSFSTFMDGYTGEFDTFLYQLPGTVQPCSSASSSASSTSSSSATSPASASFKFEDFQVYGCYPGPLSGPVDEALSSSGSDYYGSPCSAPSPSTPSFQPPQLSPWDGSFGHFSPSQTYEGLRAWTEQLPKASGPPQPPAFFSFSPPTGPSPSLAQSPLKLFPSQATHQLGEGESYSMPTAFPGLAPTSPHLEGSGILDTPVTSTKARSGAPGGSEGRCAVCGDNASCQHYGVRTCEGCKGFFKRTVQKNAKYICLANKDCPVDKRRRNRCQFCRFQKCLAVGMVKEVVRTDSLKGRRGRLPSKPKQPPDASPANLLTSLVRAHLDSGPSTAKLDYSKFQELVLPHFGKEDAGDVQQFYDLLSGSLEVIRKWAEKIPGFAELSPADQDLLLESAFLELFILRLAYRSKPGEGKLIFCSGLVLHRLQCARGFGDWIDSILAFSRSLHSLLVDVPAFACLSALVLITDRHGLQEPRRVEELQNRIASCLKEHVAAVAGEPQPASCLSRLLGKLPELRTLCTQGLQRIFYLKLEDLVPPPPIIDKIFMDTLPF

As to `COC(=O)c1ccc(C(c2c[nH]c3ccccc23)c2c[nH]c3ccccc23)cc1` [DIM-C-pPhCO2Me], at NR4A1, the “luciferase activity (NR4A1-dependent transactivation)” value was “inhibits NR4A-dependent transactivation”. Besides, the “binding to His-NR4A1 (LBD), fluorescence quenching” value in assay [1] is given as “binds the LBD of NR4A1”. The migration and invasion entry in the assay on MDA-MB-231 cells was “inhibits migration and invasion”; in the assay on SKBR3 cells it was “inhibits migration and invasion”.

Take `Oc1ccc(C(c2c[nH]c3ccccc23)c2c[nH]c3ccccc23)cc1` [DIM-C-pPhOH, 1,1-bis(3′-indolyl)-1-(p-hydroxyphenyl)methane]: the “luciferase activity (NR4A1-dependent transactivation)” value at NR4A1 is on record as “decreased luciferase activity”. In assay [1], the “binding to His-NR4A1 (LBD), fluorescence quenching” value was “quenches fluorescence”. Also, the invasion result in the assay with pancreatic cancer cells [2] was “decreased invasion”. The “β1-integrin and related gene products” value in the assay on β1-integrin [3] was “decreases β1-integrin and related gene products”. Further, the “cell adhesion to human fibronectin-coated plates” value in the assay on pancreatic cancer cells [4] is recorded as “decreases pancreatic cancer cell adhesion”. Moreover, the “expression of α5-integrin in tumor lysates” value in [5] is reported as “decreases expression”. Besides, the “expression of β1-integrin in tumor lysates” value in [5] is listed as “decreases expression”. Moreover, the β1-integrin expression entry with β1-integrin [6] is given as “decreased β1-integrin expression”; with β1-integrin [7] it was “decreased β1-integrin expression”; in the assay with β1-integrin [8] it was “decreased β1-integrin expression”; in the assay on β1-integrin [9] it was “decreases β1-integrin expression”; with β1-integrin [10], “decreases β1-integrin expression”. Also, in the assay on pancreatic cancer cells [11], the apoptosis entry was “induce apoptosis”. Also, in the assay with pancreatic cancer cells [11], the “pancreatic cancer cell growth” value is “inhibit pancreatic cancer cell growth”. Besides, in assay [12], the tumor growth entry is listed as “inhibits tumor growth”.
